In ChEMBL document CHEMBL1201862, “PubChem BioAssay data set” (2004):
Activity calls are given as the source filed them.

Legend:
Assay type in all cases: functional
[1] = biological target: Genome polyprotein (dengue virus type 2, UniProt P29990); test: Dengue-2 NS5 methyltransferase inhibitors, primary screen, biochemical, confirmation dose response (AID 588689)
[2] = biological target: T1, Caspase-3 (Homo sapiens, UniProt P42574);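 note: Dose-response selectivity test against caspase-3 for candidate inhibitors of sentrin-specific proteases (SENPs)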
T1 sequence (P42574 whole entry): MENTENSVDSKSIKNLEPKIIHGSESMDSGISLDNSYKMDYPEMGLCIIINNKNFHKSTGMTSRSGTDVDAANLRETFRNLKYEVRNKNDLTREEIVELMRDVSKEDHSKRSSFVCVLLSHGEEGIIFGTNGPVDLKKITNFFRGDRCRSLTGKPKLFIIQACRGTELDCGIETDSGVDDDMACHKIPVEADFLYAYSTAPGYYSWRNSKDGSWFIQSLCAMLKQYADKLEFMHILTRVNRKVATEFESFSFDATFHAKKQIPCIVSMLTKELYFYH

[3] = biological target: T2, Replicative DNA helicase DnaB (Mycobacterium tuberculosis, UniProt P9WMR3); test: DnaB intein splicing inhibitors, dose response, biochemical, cell-free fluorescence (AID 449749)
T2 sequence (P9WMR3 whole entry): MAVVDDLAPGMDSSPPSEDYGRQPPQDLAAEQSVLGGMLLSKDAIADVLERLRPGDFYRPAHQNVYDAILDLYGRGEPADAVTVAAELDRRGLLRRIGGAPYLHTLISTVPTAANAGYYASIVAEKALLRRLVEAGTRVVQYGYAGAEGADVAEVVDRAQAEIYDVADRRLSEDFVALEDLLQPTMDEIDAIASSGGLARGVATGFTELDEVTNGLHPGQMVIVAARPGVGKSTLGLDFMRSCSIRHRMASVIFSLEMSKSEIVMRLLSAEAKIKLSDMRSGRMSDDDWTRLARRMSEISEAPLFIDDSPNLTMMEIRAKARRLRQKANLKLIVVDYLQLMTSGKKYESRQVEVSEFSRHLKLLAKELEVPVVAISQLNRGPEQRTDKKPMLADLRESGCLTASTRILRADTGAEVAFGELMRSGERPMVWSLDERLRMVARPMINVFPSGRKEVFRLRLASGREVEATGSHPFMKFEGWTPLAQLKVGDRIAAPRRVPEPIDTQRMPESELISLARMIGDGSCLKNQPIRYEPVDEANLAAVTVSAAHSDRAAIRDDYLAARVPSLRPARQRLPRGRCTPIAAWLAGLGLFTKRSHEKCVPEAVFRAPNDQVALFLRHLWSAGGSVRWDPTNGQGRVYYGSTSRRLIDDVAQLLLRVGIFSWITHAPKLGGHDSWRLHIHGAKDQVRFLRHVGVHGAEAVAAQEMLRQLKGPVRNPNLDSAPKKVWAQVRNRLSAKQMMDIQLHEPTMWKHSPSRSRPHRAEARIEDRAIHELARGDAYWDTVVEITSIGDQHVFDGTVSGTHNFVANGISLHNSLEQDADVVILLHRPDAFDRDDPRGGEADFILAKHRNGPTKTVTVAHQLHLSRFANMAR

[4] = biological target: T3, Protein RecA (Mycobacterium tuberculosis, UniProt P9WHJ3); test: Fluorescence Cell-Free Homogeneous Dose Retest to Identify Inhibitors of RecA-Intein Splicing Activity. [Related pubchem assays (depositor defined):AID2097, AID2223, AID489010, AID492950]
T3 sequence (P9WHJ3 whole entry): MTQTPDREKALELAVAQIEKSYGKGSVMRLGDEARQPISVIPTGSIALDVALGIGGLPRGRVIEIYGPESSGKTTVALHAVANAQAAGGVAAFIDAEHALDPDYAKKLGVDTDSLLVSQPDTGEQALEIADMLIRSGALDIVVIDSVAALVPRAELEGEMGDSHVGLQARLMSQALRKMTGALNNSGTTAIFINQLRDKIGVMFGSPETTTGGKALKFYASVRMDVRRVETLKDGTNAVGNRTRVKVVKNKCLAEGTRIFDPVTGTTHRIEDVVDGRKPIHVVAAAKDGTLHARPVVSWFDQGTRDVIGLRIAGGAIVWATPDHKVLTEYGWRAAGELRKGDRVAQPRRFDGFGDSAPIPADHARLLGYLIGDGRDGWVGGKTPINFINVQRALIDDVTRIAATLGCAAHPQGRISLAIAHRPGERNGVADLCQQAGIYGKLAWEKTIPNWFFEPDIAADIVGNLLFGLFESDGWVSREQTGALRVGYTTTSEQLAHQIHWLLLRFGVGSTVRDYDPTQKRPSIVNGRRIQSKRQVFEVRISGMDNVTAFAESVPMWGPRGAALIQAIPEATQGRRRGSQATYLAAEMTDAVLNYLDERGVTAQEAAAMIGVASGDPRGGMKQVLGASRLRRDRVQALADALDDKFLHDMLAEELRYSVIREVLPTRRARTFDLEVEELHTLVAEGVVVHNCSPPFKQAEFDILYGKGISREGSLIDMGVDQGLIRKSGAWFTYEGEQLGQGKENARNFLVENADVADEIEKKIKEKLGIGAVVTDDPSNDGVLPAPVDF

[5] = test system: Vero; test: Vero cell cytotoxicity, cytotoxicity control for flavivirus capping enzyme inhibitors (AID 588742); conditions: Chlorocebus sabaeus
[6] = biological target: Delta-type opioid receptor (Homo sapiens, UniProt P41143); test: Counterscreen for agonists of heterodimerization of the mu 1 (OPRM1) and delta 1 (OPRD1) opioid receptors: Luminescence-based cell-based high throughput dose response assay to identify agonists of OPRD1 homodimerization. [Related pubchem assays (depositor defined):AID504326, AID504355, AID504692, AID504904, AID504905]
Sequence of Delta-type opioid receptor (P41143 whole entry): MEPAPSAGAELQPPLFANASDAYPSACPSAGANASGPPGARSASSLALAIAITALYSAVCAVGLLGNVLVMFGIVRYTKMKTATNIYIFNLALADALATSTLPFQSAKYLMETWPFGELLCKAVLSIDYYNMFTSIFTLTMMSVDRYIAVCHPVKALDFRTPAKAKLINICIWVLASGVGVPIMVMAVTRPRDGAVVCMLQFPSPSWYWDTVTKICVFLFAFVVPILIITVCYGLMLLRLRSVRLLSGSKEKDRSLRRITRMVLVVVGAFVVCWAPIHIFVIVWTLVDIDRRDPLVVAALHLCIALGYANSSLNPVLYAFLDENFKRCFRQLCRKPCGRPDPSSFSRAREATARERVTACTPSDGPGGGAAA

[7] = biological target: 5-hydroxytryptamine receptor 5A (Homo sapiens, UniProt P47898); test: Counterscreen for agonists of OPRM1-OPRD1 heterodimerization: luminescence-based cell-based high throughput dose response assay to identify agonists of 5-hydroxytryptamine (serotonin) 5A receptor (HTR5A). [Related pubchem assays (depositor defined):AID504326, AID504355, AID504692, AID504904, AID504905]
Sequence of 5-hydroxytryptamine receptor 5A (P47898 whole entry): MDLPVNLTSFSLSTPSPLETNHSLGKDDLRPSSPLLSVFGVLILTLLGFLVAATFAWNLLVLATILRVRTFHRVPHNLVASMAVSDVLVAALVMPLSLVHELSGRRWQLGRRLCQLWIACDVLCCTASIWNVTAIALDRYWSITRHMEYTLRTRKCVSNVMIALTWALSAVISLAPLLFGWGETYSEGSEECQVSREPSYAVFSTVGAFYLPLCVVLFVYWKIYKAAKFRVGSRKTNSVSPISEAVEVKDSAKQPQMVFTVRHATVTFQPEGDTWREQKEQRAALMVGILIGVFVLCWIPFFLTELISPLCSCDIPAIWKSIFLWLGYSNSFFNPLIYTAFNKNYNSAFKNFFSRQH

[8] = THP-1 cell cytotoxicity, dose response, cytotoxicity control for Vif-APOBEC3G degradation inhibitor project, THP-1 cells (AID 1117359); conditions: Human immunodeficiency virus 1, THP-1
[9] = growth suppression of beta-catenin-knockout colon cells, dose response, cell-based, HCT116, human colon tumor (AID 1045);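 note: HCT116 colon tumor cells with beta catenin knocked out; cells exposed to compound for 60 hours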
[10] = THP-1 cell cytotoxicity, dose response, cytotoxicity control for non-replicating M. tuberculosis project (AID 489025)
[11] = Intein inhibitors as potential Tuberculosis drugs, a cytotoxicity screen. [Related pubchem assays (depositor defined):AID2221, AID2223, AID434968, AID435010, AID449749, AID449750, AID489010]
[12] = biological target: Lysine-specific demethylase 4C (Homo sapiens, UniProt Q9H3R0); test: GASC-1 (JMJD2C) histone demethylase inhibitors, dose response, biochemical, DELFIA europium, cherry-picked samples (AID 488835)
Sequence of Lysine-specific demethylase 4C (Q9H3R0 whole entry): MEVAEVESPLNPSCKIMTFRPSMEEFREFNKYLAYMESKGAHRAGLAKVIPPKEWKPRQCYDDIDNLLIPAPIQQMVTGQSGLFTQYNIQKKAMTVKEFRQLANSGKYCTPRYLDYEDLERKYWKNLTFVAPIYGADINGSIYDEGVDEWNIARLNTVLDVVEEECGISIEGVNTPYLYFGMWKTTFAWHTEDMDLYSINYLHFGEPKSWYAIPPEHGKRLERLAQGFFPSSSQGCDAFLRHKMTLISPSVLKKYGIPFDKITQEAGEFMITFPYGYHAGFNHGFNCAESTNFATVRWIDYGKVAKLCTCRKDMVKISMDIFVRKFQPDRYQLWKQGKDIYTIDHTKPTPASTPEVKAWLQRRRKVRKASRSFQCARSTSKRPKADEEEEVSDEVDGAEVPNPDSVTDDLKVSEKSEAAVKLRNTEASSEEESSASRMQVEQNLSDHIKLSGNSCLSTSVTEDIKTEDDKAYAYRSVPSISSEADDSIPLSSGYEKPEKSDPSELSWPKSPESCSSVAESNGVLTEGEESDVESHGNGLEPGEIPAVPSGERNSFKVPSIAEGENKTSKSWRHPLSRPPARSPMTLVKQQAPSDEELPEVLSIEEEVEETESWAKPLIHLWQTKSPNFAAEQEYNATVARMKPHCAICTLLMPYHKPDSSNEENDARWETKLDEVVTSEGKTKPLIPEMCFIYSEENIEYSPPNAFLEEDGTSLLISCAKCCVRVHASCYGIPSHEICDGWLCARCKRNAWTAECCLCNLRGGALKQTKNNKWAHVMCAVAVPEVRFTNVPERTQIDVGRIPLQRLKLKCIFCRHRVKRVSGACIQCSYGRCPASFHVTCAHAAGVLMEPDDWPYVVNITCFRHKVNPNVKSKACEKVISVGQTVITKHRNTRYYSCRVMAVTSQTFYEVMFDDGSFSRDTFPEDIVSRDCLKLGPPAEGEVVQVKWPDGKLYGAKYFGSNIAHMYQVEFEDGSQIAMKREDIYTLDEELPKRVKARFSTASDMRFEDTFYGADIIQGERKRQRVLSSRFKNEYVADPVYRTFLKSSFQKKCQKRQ

[13] = biological target: Ras and Rab interactor 1/Tyrosine-protein kinase ABL1 (Homo sapiens, UniProt P00519+Q13671);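 note: biochemical TR-FRET dose-response test measuring inhibition of binding between Rin1 and Abl proteins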
Sequence of Ras and Rab interactor 1/Tyrosine-protein kinase ABL1 (P00519 whole entry): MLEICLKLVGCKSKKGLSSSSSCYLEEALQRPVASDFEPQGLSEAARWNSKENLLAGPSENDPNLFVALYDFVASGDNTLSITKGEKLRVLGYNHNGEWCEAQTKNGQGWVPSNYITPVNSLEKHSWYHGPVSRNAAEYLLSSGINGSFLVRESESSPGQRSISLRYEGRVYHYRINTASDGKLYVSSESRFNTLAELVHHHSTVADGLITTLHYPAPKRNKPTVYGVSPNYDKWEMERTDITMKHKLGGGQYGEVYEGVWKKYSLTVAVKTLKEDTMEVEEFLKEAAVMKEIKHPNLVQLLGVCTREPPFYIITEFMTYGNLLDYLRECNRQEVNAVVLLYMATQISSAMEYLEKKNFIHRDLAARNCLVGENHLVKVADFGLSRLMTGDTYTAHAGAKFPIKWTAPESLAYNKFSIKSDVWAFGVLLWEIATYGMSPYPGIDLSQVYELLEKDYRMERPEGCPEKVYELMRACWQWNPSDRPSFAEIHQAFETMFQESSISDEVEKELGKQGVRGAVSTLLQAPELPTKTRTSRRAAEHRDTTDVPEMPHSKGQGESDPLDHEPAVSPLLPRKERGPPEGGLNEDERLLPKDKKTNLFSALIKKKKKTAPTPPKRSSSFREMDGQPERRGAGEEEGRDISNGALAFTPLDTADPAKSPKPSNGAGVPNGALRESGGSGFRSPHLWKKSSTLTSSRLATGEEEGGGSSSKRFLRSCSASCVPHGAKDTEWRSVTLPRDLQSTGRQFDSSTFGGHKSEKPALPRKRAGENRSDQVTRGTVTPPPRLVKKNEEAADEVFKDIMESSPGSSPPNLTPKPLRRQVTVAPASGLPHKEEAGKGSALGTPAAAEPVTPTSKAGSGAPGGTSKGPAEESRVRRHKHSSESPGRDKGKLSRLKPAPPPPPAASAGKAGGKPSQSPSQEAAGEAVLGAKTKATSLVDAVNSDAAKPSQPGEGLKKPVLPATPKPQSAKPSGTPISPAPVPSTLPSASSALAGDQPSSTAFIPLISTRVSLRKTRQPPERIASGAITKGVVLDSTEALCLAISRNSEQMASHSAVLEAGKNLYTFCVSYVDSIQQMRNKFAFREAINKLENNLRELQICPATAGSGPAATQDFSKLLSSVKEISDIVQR
Sequence of Ras and Rab interactor 1/Tyrosine-protein kinase ABL1 (Q13671 whole entry): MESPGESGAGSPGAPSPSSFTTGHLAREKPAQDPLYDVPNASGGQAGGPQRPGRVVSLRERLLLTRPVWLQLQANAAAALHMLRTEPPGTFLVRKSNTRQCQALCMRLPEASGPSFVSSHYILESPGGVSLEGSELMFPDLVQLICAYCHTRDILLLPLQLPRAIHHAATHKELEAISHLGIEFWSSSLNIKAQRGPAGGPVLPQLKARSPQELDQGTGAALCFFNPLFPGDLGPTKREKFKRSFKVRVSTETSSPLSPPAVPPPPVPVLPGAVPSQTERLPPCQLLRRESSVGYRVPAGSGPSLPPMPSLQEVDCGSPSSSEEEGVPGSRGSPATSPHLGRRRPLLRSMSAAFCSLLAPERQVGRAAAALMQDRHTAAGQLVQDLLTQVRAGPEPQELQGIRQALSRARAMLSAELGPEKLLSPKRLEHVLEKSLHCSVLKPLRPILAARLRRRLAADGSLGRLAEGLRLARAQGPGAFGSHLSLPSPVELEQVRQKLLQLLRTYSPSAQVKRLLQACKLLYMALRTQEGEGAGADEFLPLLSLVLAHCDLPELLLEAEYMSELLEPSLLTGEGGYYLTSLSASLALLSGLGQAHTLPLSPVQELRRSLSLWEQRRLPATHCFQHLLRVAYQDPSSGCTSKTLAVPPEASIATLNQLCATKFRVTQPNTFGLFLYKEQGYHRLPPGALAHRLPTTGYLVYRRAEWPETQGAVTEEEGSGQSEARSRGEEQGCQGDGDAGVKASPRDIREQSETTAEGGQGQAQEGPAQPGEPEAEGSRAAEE

Sequence of Genome polyprotein (P29990 2492-3391 limits assumed): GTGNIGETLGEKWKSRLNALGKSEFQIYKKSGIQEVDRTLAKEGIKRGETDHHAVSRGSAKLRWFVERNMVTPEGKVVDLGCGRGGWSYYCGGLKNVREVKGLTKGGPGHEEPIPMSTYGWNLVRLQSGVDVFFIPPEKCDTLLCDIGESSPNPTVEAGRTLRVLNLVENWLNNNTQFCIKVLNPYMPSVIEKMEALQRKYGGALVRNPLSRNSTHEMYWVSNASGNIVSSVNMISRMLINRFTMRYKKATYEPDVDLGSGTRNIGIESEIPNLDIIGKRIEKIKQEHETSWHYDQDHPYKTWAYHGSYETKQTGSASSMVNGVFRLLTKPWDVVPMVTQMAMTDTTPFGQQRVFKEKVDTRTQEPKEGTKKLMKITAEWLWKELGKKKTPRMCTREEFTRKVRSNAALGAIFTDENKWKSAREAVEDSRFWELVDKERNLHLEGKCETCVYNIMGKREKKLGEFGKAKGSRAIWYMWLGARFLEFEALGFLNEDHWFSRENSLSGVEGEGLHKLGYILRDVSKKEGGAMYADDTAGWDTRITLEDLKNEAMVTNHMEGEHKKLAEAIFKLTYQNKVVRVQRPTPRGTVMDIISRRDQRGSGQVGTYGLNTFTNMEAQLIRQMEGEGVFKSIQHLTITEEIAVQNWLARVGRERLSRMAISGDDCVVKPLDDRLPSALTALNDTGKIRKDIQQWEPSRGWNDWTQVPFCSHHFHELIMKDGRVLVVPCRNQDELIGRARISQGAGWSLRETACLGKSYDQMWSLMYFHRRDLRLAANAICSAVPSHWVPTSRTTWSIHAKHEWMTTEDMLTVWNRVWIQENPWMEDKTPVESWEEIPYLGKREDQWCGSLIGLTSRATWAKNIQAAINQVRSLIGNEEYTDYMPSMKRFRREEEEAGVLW

O=C(CCN1C(=O)/C(=C\c2ccco2)SC1=S)Nc1ccc(C(=O)O)c(O)c1
IC50 [1]: > 100 µM (active)

Oc1nc(Nc2ccccc2Cl)cc2ccccc12
IC50 [2]: 4.42 µM (active) | AC50 [3]: 9.33 µM (active) | EC50 [4]: 1.99 µM (active)

O=C1C=C(c2c(O)ccc3ccccc23)c2ccccc2C1=O
CC50 [5]: 22.1 µM (active) | EC50 [6]: > 92.4 µM (inactive) | EC50 [7]: > 92.4 µM (inactive) | IC50 [1]: 5.91 µM (active) | CC50 [8]: 7.1 µM (active)

Cc1nc2c(=O)n(C)c(=O)nc-2n(C)n1
EC50 [9]: 0.781 µM (active) | CC50 [10]: 2.73 µM (active) | CC50 [11]: 7.94 µM (active) | AC50 [12]: 0.425 µM (active) | AC50 [3]: 0.0978 µM (active) | EC50 [4]: 0.0209 µM (active) | IC50 [13]: 0.302 µM (active)
